Results from ChEMBL document CHEMBL5500363, “Discovery of novel ocotillol derivatives modulating glucocorticoid receptor/NF-κB signaling for the treatment of sepsis” (Eur J Med Chem, 2024).

How the values were obtained:
RAW264.7 [1] = assay: Inhibition of LPS-induced NO production in mouse RAW264.7 cells at 20 uM pretreated for 2 hrs followed by LPS stimulation for 24 hrs by Griess assay relative to control; format: functional; settings: time 26 hrs
RAW264.7 [2] = assay: Inhibition of LPS-induced NO production in mouse RAW264.7 cells at 10 uM pretreated for 2 hrs followed by LPS stimulation for 24 hrs by Griess assay relative to control; format: functional; settings: time 26 hrs
RAW264.7 [3] = assay: Inhibition of LPS-induced NO production in mouse RAW264.7 cells pretreated for 2 hrs followed by LPS stimulation for 24 hrs by Griess assay; format: functional, cell-based
[4] = Cytotoxicity against mouse RAW264.7 cells assessed as cell viability at 40 uM incubated for 24 hrs by MTT assay relative to control; format: toxicity, cell-based; settings: read-out: Activity
RAW264.7 [5] = assay: Inhibition of LPS-induced NO production in mouse RAW264.7 cells at 5 uM pretreated for 2 hrs followed by LPS stimulation for 24 hrs by Griess assay relative to control; format: functional; settings: time 26 hrs
RAW264.7 [6] = assay: Cytotoxicity against mouse RAW264.7 cells assessed as cell viability at 40 uM incubated for 24 hrs by MTT assay; format: toxicity, cell-based; settings: raw264.7, 24 h

SMILES | inhibition at 20 µM (RAW264.7 [1]) | inhibition at 10 µM (RAW264.7 [2]) | IC50 (RAW264.7 [3]) | viability at 24 h, 40 µM [4] | inhibition at 5 µM (RAW264.7 [5]) | Activity (RAW264.7 [6])
CC(C)(C)OC(=O)CCC(=O)Nc1nc2c(s1)C[C@]1(C)[C@H]3C[C@@H](O)[C@@H]4C([C@]5(C)CC[C@H](C(C)(C)O)O5)CC[C@@]4(C)[C@]3(C)CC[C@H]1C2(C)C (some centres undefined) | 39.1% | 22.5% | 16.5 µM | > 90% | 11.1% | –
CC(C)(C)OC(=O)NCCCCCCCCCCC(=O)Nc1nc2c(s1)C[C@]1(C)[C@H]3C[C@@H](O)[C@@H]4C([C@]5(C)CC[C@H](C(C)(C)O)O5)CC[C@@]4(C)[C@]3(C)CC[C@H]1C2(C)C (some centres undefined) | – | – | – | – | – | Toxic
CC(C)(O)[C@H]1CC[C@@](C)(C2CC[C@]3(C)[C@@H]2[C@H](O)C[C@@H]2[C@@]4(C)Cc5sc(N)nc5C(C)(C)[C@@H]4CC[C@]23C)O1 (some centres undefined) | 37.7% | 23.9% | 18.9 µM | > 90% | 19% | –
CC(C)(O)[C@@H]1CC[C@@](C)(C2CC[C@]3(C)[C@@H]2[C@H](O)C[C@@H]2[C@@]4(C)CC[C@H](O)C(C)(C)[C@@H]4CC[C@]23C)O1 (some centres undefined) | 22.3% | 8.85% | 30.4 µM | – | 5.58% | –
CC(C)(O)[C@H]1CC[C@@](C)(C2CC[C@]3(C)[C@@H]2[C@H](O)C[C@@H]2[C@@]4(C)CC[C@H](OC(=O)CCC(=O)Nc5nncs5)C(C)(C)[C@@H]4CC[C@]23C)O1 (some centres undefined) | 35.7% | 18.5% | 40.3 µM | > 90% | 10.8% | –
CC(C)(O)[C@@H]1CC[C@@](C)(C2CC[C@]3(C)[C@@H]2[C@H](O)C[C@@H]2[C@@]4(C)Cc5sc(N)nc5C(C)(C)[C@@H]4CC[C@]23C)O1 (some centres undefined) | 36.6% | 23.5% | 26.1 µM | > 90% | 11.4% | –
CC(C)(C)OC(=O)CCCC(=O)Nc1nc2c(s1)C[C@]1(C)[C@H]3C[C@@H](O)[C@@H]4C([C@]5(C)CC[C@H](C(C)(C)O)O5)CC[C@@]4(C)[C@]3(C)CC[C@H]1C2(C)C (some centres undefined) | 18.1% | 13.3% | 52 µM | > 90% | 14.2% | –
CC(C)(O)[C@H]1CC[C@@](C)(C2CC[C@]3(C)[C@@H]2[C@H](O)C[C@@H]2[C@@]4(C)CC[C@H](O)C(C)(C)[C@@H]4CC[C@]23C)O1 (some centres undefined) | 30.3% | 19.7% | 20.8 µM | – | 13% | –
CC(C)(C)OC(=O)CC(=O)Nc1nc2c(s1)C[C@]1(C)[C@H]3C[C@@H](O)[C@@H]4C([C@]5(C)CC[C@@H](C(C)(C)O)O5)CC[C@@]4(C)[C@]3(C)CC[C@H]1C2(C)C (some centres undefined) | 67.2% | 40.7% | 9.17 µM | > 90% | 24.5% | –
CC(C)(C)OC(=O)CC(=O)Nc1nc2c(s1)C[C@]1(C)[C@H]3C[C@@H](O)[C@@H]4C([C@]5(C)CC[C@H](C(C)(C)O)O5)CC[C@@]4(C)[C@]3(C)CC[C@H]1C2(C)C (some centres undefined) | 50% | 29.8% | 17.5 µM | > 90% | 14.3% | –
CC(C)(C)OC(=O)NCCCCCCCC(=O)Nc1nc2c(s1)C[C@]1(C)[C@H]3C[C@@H](O)[C@@H]4C([C@]5(C)CC[C@@H](C(C)(C)O)O5)CC[C@@]4(C)[C@]3(C)CC[C@H]1C2(C)C (some centres undefined) | 39.4% | 29.9% | 33.1 µM | > 90% | 19.9% | –
CC(C)(O)[C@H]1CC[C@@](C)(C2CC[C@]3(C)[C@@H]2[C@H](O)C[C@@H]2[C@@]4(C)CC[C@H](OC(=O)CCC(=O)Nc5nnc(Cl)s5)C(C)(C)[C@@H]4CC[C@]23C)O1 (some centres undefined) | 57.9% | 47.3% | 11.4 µM | > 90% | 28.6% | –
CC(C)(O)[C@@H]1CC[C@@](C)(C2CC[C@]3(C)[C@@H]2[C@H](O)C[C@@H]2[C@@]4(C)CC[C@H](OC(=O)CCC(=O)Nc5nnc(Br)s5)C(C)(C)[C@@H]4CC[C@]23C)O1 (some centres undefined) | 70.2% | 47% | 10.3 µM | > 90% | 34.8% | –
CC(C)(C)OC(=O)NCCCCCC(=O)Nc1nc2c(s1)C[C@]1(C)[C@H]3C[C@@H](O)[C@@H]4C([C@]5(C)CC[C@@H](C(C)(C)O)O5)CC[C@@]4(C)[C@]3(C)CC[C@H]1C2(C)C (some centres undefined) | 48.5% | 43.6% | 24.5 µM | > 90% | 27.4% | –
CC(C)(O)[C@@H]1CC[C@@](C)(C2CC[C@]3(C)[C@@H]2[C@H](O)C[C@@H]2[C@@]4(C)CC[C@H](OC(=O)CCC(=O)Nc5nncs5)C(C)(C)[C@@H]4CC[C@]23C)O1 (some centres undefined) | 58.6% | 21.3% | 17.9 µM | > 90% | 7.78% | –
CC(C)(O)[C@@H]1CC[C@@](C)(C2CC[C@]3(C)[C@@H]2[C@H](O)C[C@@H]2[C@@]4(C)Cc5sc(NC(=O)OC(F)(F)F)nc5C(C)(C)[C@@H]4CC[C@]23C)O1 (some centres undefined) | 22.2% | 6.84% | 41.6 µM | > 90% | 6.07% | –
CC(C)(C)OC(=O)CCCC(=O)Nc1nc2c(s1)C[C@]1(C)[C@H]3C[C@@H](O)[C@@H]4C([C@]5(C)CC[C@@H](C(C)(C)O)O5)CC[C@@]4(C)[C@]3(C)CC[C@H]1C2(C)C (some centres undefined) | 60.4% | 41.2% | 11.6 µM | > 90% | 20.4% | –
CC(C)(O)[C@@H]1CC[C@@](C)(C2CC[C@]3(C)[C@@H]2[C@H](O)C[C@@H]2[C@@]4(C)Cc5sc(NC(=O)C(F)(F)F)nc5C(C)(C)[C@@H]4CC[C@]23C)O1 (some centres undefined) | 30.9% | 20.6% | 25.7 µM | > 90% | 14.2% | –
CC(C)(O)[C@H]1CC[C@@](C)(C2CC[C@]3(C)[C@@H]2[C@H](O)C[C@@H]2[C@@]4(C)Cc5sc(NC(=O)OC(F)(F)F)nc5C(C)(C)[C@@H]4CC[C@]23C)O1 (some centres undefined) | 37.5% | 21.2% | 35.6 µM | > 90% | 8.01% | –
CC(C)(O)[C@@H]1CC[C@@](C)(C2CC[C@]3(C)[C@@H]2[C@H](O)C[C@@H]2[C@@]4(C)CC[C@H](OC(=O)CCC(=O)Nc5nnc(Cl)s5)C(C)(C)[C@@H]4CC[C@]23C)O1 (some centres undefined) | 45.7% | 43.4% | 29.8 µM | > 90% | 32.5% | –
CC(C)(C)OC(=O)NCCCCCCCCCCC(=O)Nc1nc2c(s1)C[C@]1(C)[C@H]3C[C@@H](O)[C@@H]4C([C@]5(C)CC[C@@H](C(C)(C)O)O5)CC[C@@]4(C)[C@]3(C)CC[C@H]1C2(C)C (some centres undefined) | 17.1% | 6.18% | 50.6 µM | > 90% | 1.99% | –
